PMC12526400, “Insight into Cytotoxic Potential of Erica spiculifolia Salisb (Balkan Heath)” (Plants, 2025)
≈ marks a conversion by molar mass, not a printed value. Where “and” joins values, the source holds several entries; their conditions need not be identical. Equal values may be shown once. Entries after “also recorded” stand apart in the source; their conditions may differ. Read-outs that look alike come from different tables or passages of the source.

Columns and labels:
[1] = system: LAMA-84 cells; assay: MTT cytotoxicity, LAMA-84; assay type: cell-based, human
Text: (§1) To evaluate the anticancer potential of the studied E. spiculifolia extract, we employed a diverse panel of human cancer cell lines alongside a non-malignant control. The hematological models included LAMA-84, a chronic myeloid leukemia line harboring the Philadelphia chromosome [t(9;22)], and HL-60, an acute promyelocytic leukemia line characterized by the t(15;17) translocation. These suspension cultures allowed us to assess the effects on leukemic cells with distinct genetic drivers. In parallel, we investigated the antitumor activity of the plant extract against reproductive system-associated carcinomas, including breast carcinoma cells (MCF-7 and MDA-MB-231) and a cervical cancer cell line (CASKI). MCF-7 cells are hormone-responsive and widely used to model estrogen receptor-positive disease, whereas MDA-MB-231 cells are triple-negative, highly aggressive, and resistant to conventional anti-hormonal therapy. To further broaden the spectrum, we included CASKI, a cervical carcinoma line associated with HPV16 infection, thereby extending the analysis to virally driven epithelial cancer. In addition, normal murine fibroblast cells (CCL-1) were used as a non-malignant comparator, enabling an assessment of selectivity between normal and malignant cells. The presence and degree of tumor selectivity was assessed by calculating the correspondent selectivity indices (SI, selectivity index), defined as the ratio between the half-inhibitory concentrations of the extract in healthy and malignant cells (Table 2).
(§2) The antiproliferative activity of the extract, gallic, oleanolic, and protocatechuic acids was screened against human malignant cell lines of hematological (LAMA-84, HL-60) and epithelial (MDA-MB-231, MCF-7, CASKI) origin, as well as normal murine fibroblast cells (CCL-1). All cell lines were purchased from the German Collection of Microorganisms and Cell Cultures (DSMZ GmbH, Braunschweig, Germany). Cell cultures were cultivated in a growth medium RPMI 1640 supplemented with 10% fetal bovine serum (FBS), 5% L-glutamine, and incubated under standard conditions of 37 °C and 5% humidified CO2 atmosphere.
(§3) The cytotoxic potential of the E. spiculifolia extract was studied using a validated method for assessing cell viability known as the Mosmann MTT test. The assay is colorimetric and measures the activity of mitochondrial enzymes, reducing the yellow dye MTT (3-(4,5-dimethylthiazol-2-yl)-2,5-diphenyltetrazolium bromide) to violet formazan crystals. According to protocol, exponential-phased cells were harvested and seeded (100 μL/well) in 96-well plates at the appropriate density. Following a 24 h incubation, cells were treated with serial dilutions of the extract in the concentration range 1000–31.3 μg/mL. Following a 72 h exposure, filter sterilized MTT substrate solution (5 mg/mL in PBS) was added to each well of the culture plate. A further 4h incubation allowed the reduction of the yellow MTT reagent into purple formazan crystals in metabolically active viable cells, which were dissolved in an isopropyl alcohol solution containing 5% formic acid prior to absorbance measurement at 550 nm. Untreated cells (100% cell viability) were used as negative control. Cisplatin was used as positive control.
(§4) Collected absorbance values were blanked against MTT and isopropanol solution and normalized to the mean value of untreated control (100% cell viability). The obtained data were fitted to “concentration-effect” curves and analyzed by means of non-linear regression in the GraphPad Prism 8.0 software. Statistical analyses were performed using one-way analysis of variance (ANOVA) to assess differences among experimental groups. Where significant differences were detected, post hoc comparisons were conducted using Tukey’s test.

[2] = system: HL-60 cells; assay: MTT cytotoxicity, HL-60; assay type: cell-based, human
Text: as §1, §2, §3, §4

[3] = system: cancer versus normal cell models; set-up: method as in PMID 36297448, doi:10.13005/bpj/3133, PMID 37108571; details: depending on the cancer versus normal cell models applied; cited from earlier work
[4] = system: CCL-1 normal murine fibroblast cells; assay: MTT cytotoxicity, normal fibroblasts CCL-1; assay type: cell-based
Text: as §1, §2
as §3, with “Following a 72 h exposure, filter sterilized MTT substrate solution (5 mg/mL in PBS) was added to each well of the culture plate.” left out, “Untreated cells (100% cell viability) were used as negative control. Cisplatin was used as positive control.” left out
Collected absorbance values were blanked against MTT and isopropanol solution and normalized to the mean value of untreated control (100% cell viability). The obtained data were fitted to “concentration-effect” curves and analyzed by means of non-linear regression in the GraphPad Prism 8.0 software. […] Where significant differences were detected, post hoc comparisons were conducted using Tukey’s test.

[5] = system: MCF-7 cells; assay: MTT cytotoxicity, MCF-7; assay type: cell-based, human
Text: as §1, §2, §3, §4

[6] = system: MDA-MB-231 cells; assay: MTT cytotoxicity, MDA-MB-231; assay type: cell-based, human
Text: as §1, §2, §3, §4

[7] = system: CASKI cells; assay: MTT cytotoxicity, CASKI; assay type: cell-based, human
Text: as §1, §2, §3, §4

[8] = system: triple-negative MDA-MB-231 breast cancer cells; set-up: method as in doi:10.3724/SP.J.1145.2010.00202; details: cited from earlier work
[9] = system: hepatocellular carcinoma HuH7 cells; set-up: method as in PMID 20415421; details: cited from earlier work
[10] = system: HCT116; set-up: method as in PMID 30928277; details: cited from earlier work
[11] = system: SW480; set-up: method as in PMID 30928277; details: cited from earlier work
[12] = Homo sapiens, LAMA-84, MTT, 72 h exposure, bcr-abl+ chronic myeloid leukemia, read-out: IC50 LAMA-84 (converted)
[13] = Homo sapiens, LAMA-84, MTT, 72 h exposure, molar equivalent in brackets, read-out: IC50 LAMA-84 (converted)
[14] = Homo sapiens, HL-60, MTT, 72 h exposure, promyelocytic leukemia, read-out: IC50 HL-60 (converted)
[15] = Mus musculus, MTT, 72 h exposure, normal murine fibroblast cells, read-out: IC50 CCL-1 (converted)
[16] = Homo sapiens, MCF7, MTT, 72 h exposure, hormone-responsive breast carcinoma, read-out: IC50 MCF-7 (converted)
[17] = Homo sapiens, MDA-MB-231, MTT, 72 h exposure, triple-negative breast carcinoma, read-out: IC50 MDA-MB-231 (converted)
[18] = Homo sapiens, Ca-Ski, MTT, 72 h exposure, cervical cancer, read-out: IC50 CASKI (converted)
[19] = 72 h, concentrations up to 500 μg/mL

For N.N.[Cl][Pt][Cl] [cisplatin, reference compound], the “IC50 LAMA-84” value ([1]; MTT, 72 h exposure, bcr-abl+ chronic myeloid leukemia) was 11.4 ± 0.99 µg/mL, the IC50 ([1]; MTT, 72 h exposure, molar equivalent in brackets, read-out: IC50 LAMA-84 (converted)) was 37.8 µM and the “SI LAMA-84” value ([1]; selectivity index = IC50 in CCL-1 / IC50 in LAMA-84) was <1. The IC50 ([2]; MTT, 72 h exposure, molar equivalent in brackets, read-out: IC50 HL-60 (converted)) was 8.9 µM, the “IC50 HL-60” value ([2]; MTT, 72 h exposure, promyelocytic leukemia) was 2.7 ± 0.4 µg/mL and the “SI HL-60” value ([2]; selectivity index = IC50 in CCL-1 / IC50 in HL-60) was 2.1. For the same molecule, the “SI values typically reported” value [3] was 1–40, the IC50 ([4]; MTT, 72 h exposure, molar equivalent in brackets, read-out: IC50 CCL-1 (converted)) was 18.7 µM and the “IC50 CCL-1” value ([4]; MTT, 72 h exposure, normal murine fibroblast cells) was 5.6 ± 0.7 µg/mL. The “IC50 MCF-7” value ([5]; MTT, 72 h exposure, hormone-responsive breast carcinoma) was 15.5 ± 1.7 µg/mL, the IC50 ([5]; MTT, 72 h exposure, molar equivalent in brackets, read-out: IC50 MCF-7 (converted)) was 51.6 µM and the “SI MCF-7” value ([5]; selectivity index = IC50 in CCL-1 / IC50 in MCF-7) was <1. For the same molecule, the IC50 ([6]; MTT, 72 h exposure, molar equivalent in brackets, read-out: IC50 MDA-MB-231 (converted)) was 57.1 µM, the “IC50 MDA-MB-231” value ([6]; MTT, 72 h exposure, triple-negative breast carcinoma) was 17.2 ± 1.3 µg/mL and the “SI MDA-MB-231” value ([6]; selectivity index = IC50 in CCL-1 / IC50 in MDA-MB-231) was <1. The “IC50 CASKI” value ([7]; MTT, 72 h exposure, cervical cancer) was 14.6 ± 1.9 µg/mL, the IC50 ([7]; MTT, 72 h exposure, molar equivalent in brackets, read-out: IC50 CASKI (converted)) was 48.6 µM and the “SI CASKI” value ([7]; selectivity index = IC50 in CCL-1 / IC50 in CASKI) was <1.

In the case of COc1cccc2c1C(=O)c1c(O)c3c(c(O)c1C2=O)C[C@@](O)(C(=O)CO)C[C@@H]3O[C@H]1C[C@H](N)[C@H](O)[C@H](C)O1 [doxorubicin], the “SI values typically reported” value [3] is given as 1–40.

For O=C(O)c1cc(O)c(O)c(O)c1 [gallic acid], the IC50 [1, 12] was 6.2 µg/mL, the IC50 [1, 13] was 36.4 µM and the IC50 [2, 14] was > 500 µg/mL. The IC50 [4, 15] was > 500 µg/mL, the IC50 [5, 16] was > 500 µg/mL and the IC50 [6, 17] was > 500 µg/mL. The “cytotoxicity against CASKI (in words)” value ([7]; 72 h exposure) was “inactive” and the IC50 [7, 18] was > 500 µg/mL.

In the case of CC1(C)CC[C@]2(C(=O)O)CC[C@]3(C)C(=CC[C@@H]4[C@@]5(C)CC[C@H](O)C(C)(C)[C@@H]5CC[C@]43C)[C@@H]2C1 [oleanolic acid], the IC50 [1, 12] is listed as 1.7 µg/mL, the IC50 [1, 13] is listed as 3.7 µM and the “IC50 MDA-MB-231 (previous studies)” value [8] is listed as 38.8 µg/mL (≈ 85 µM). For the same molecule, the IC50 [2, 14] was > 500 µg/mL, the IC50 [9] was 100 µM and the IC50 [4, 15] was > 500 µg/mL. For the same molecule, the “cytotoxicity against MCF-7 (in words)” value [5, 19] was “inactive; also recorded: did not exert cytotoxic effects”, the IC50 [5, 16] was > 500 µg/mL and the “cytotoxicity against MDA-MB-231 (in words)” value [6, 19] was “inactive; also recorded: did not exert cytotoxic effects”. For the same molecule, the IC50 [6, 17] was > 500 µg/mL, the “cytotoxicity against CASKI (in words)” value ([7]; 72 h exposure) was “inactive” and the IC50 [7, 18] was > 500 µg/mL.

With O=C(O)c1ccc(O)c(O)c1 [protocatechuic acid] the IC50 ([1]; Homo sapiens, LAMA-84, 72 h, read-out: IC50 LAMA-84) was > 500 µg/mL and > 3.24 mM, the IC50 ([2]; Homo sapiens, HL-60, 72 h, read-out: IC50 HL-60) was > 500 µg/mL and the IC50 ([4]; Mus musculus, Fibroblast, 72 h, read-out: IC50 CCL-1) was > 500 µg/mL. The IC50 ([5]; Homo sapiens, MCF7, 72 h, read-out: IC50 MCF-7) was > 500 µg/mL, the IC50 ([6]; Homo sapiens, MDA-MB-231, 72 h, read-out: IC50 MDA-MB-231) was 311 µg/mL and the IC50 ([7]; Homo sapiens, Ca-Ski, 72 h, read-out: IC50 CASKI) was > 500 µg/mL.

In the case of C[C@H]1[C@H](C)CC[C@]2(C(=O)O)CC[C@]3(C)C(=CC[C@@H]4[C@@]5(C)CC[C@H](O)C(C)(C)[C@@H]5CC[C@]43C)[C@H]12 [ursolic acid], the IC50 [9] is listed as 75 µM, the IC50 [10] is listed as 13 µM and the IC50 [11] is listed as 10.2 µM.
